Experimental data from PMC12786457, “Studies on the Complexation of Platinum(II) by Some 4-Nitroisothiazoles and the Cytotoxic Activity of the Resulting Complexes” (Molecules, 2025).
Like-named read-outs stand apart in the source and are kept apart here.

Key:
[1] = Solubility in solvents (qualitative); type: physicochemical
[2] = system: MCF-7 (breast adenocarcinoma); experiment: SRB (sulforhodamine B) viability assay, MCF-7; type: cell-based, human; details: for IC50: SRB assay
Experimental: (§1) The cytotoxicity of the complexes C1–C5 was estimated by examining cell viability using the sulforhodamine B assay. […] However, due to the very poor solubility of the most polar complex C5 in acetone, its initial solution had to be prepared in polar N,N-dimethylacetamide (DMA) (see Section 3.7). Cisplatin was used as the reference drug. The results are presented as IC50 (50% inhibitory concentration), i.e., concentrations that reduce cell survival by 50%. The test was conducted on three cancer cell lines and one normal healthy cell line, namely, breast adenocarcinoma (MCF-7), ovarian adenocarcinoma (ES-2), lung adenocarcinoma (A549), and murine embryonic fibroblast (BALB/3T3).
(§2) Three solid tumor cell lines were used in this study: MCF-7 (breast adenocarcinoma), ES-2 (ovarian adenocarcinoma), and A549 (lung adenocarcinoma). The BALB/3T3 (mouse embryonic fibroblast) cell line was used as a comparative nonpathological tissue. All cell lines were purchased from the American Type Culture Collection (ATCC, Rockville, MD, USA). The preparation of cell cultures for cytotoxicity experiments is described in detail in the following article.
(§3) The initial solutions for subsequent dilutions in biological medium were prepared in a similar manner as described previously. […] The complex C5 was dissolved in the dimethylacetamide (DMA). All the initial solutions were prepared ex tempore and then were added to the culture medium 1:9 (v/v) to obtain a stock solution of 1 mg/mL.
(§4) The test was prepared and performed in the same manner as detailed in the following cited works.

[3] = system: ES-2 (ovarian adenocarcinoma); experiment: SRB (sulforhodamine B) viability assay, ES-2; type: cell-based, human
Experimental: as §1, §2, §3, §4

[4] = system: BALB/3T3 (mouse embryonic fibroblast); experiment: SRB (sulforhodamine B) viability assay, normal cells BALB/3T3; type: cell-based; details: normoxia, read-out: IC50 ± SD, Normal Cells BALB/3T3, Normoxia
Experimental: as §1, §2, §3, §4

[5] = Reactivity with L-glutathione (GSH), UV photometry at 260 nm; type: in vitro ADME; details: for Half-time, t1/2 of reaction with GSH: 2 mM GSH, 10 mmol/L NaCl, 10 mmol/L Tris x HCl pH 7.4, 37 °C, UV 260 nm
Text: Deactivation of platinum anticancer drugs occurs in the organism at both systemic and intracellular levels. After intravenous administration, these drugs undergo a series of metabolic processes, and the concentration of their active forms can be reduced by various mechanisms. At the systemic level, the first step in deactivation is plasma protein binding: Platinum drugs rapidly bind to plasma proteins (over 90%), especially albumin [32]. […] At the cellular level, platinum drugs are neutralized by binding to intracellular proteins and peptides such as glutathione and metallothionein [33]. Binding to peptide and protein thiol and thioether moieties, which are the primary binding sites for such reactions, prevents the drug from reaching DNA and may be responsible for its nephrotoxicity. As in previous studies, we assessed the susceptibility of the tested compounds to this type of inactivation in the cancer tissues by measuring the half-life of the compound in an aqueous solution containing a physiological concentration of the reduced form of glutathione (GSH) using UV photometry at a wavelength of 260 nm similarly as in Hagrman et al.. Using the same methodology allowed us to directly compare the GHS reactivity of nitroisothiazole compounds with their pyrazole and isoxazole analogues. As a control, the UV spectra of complexes C1 and C2 in dioxane were recorded to check whether there was excessive absorption at a wavelength of 260 nm, which could interfere with the measurement of the reaction of the complexes with glutathione (visualization of the UV spectra can be found in the Supplementary Materials, Figures S46 and S47).
The experiment was conducted in a similar manner to that described in previous publications. First, 30 μL of 60 mM solution of the appropriate complex (cis C1, trans C2, trans C3 and trans C4) in purified and anhydrous distilled dioxane was mixed with 3 mL of a 2 mM solution of reduced L-glutathione (GSH) in an argon-saturated medium containing 10 mmol/L NaCl and 10 mmol/L Tris x HCl buffer, pH 7.4, to achieve a final concentration of 6 µM of the tested complexes. The measurement was carried out at 37 °C. The progress of the reaction was monitored by UV absorption spectrometry at a wavelength of 260 nm. Dioxane was used to dissolve the tested Pt complexes due to the lack of UV absorption of this solvent at the used wavelength. The GSH solution was saturated with argon to remove oxygen and thus prevent oxidation of GSH with the formation of S-S bonds, which would interfere with the measurement results.

[6] = system: A549 (lung adenocarcinoma); experiment: SRB (sulforhodamine B) viability assay, A549; type: cell-based, human; details: for IC50 ± SD, A549 (Lung), Hypoxia / IC50: SRB assay
Experimental: as §1, §2, §3, §4

[7] = TLC Rf as a measure of relative lipophilicity; type: physicochemical; details: silica gel TLC Al foils
[8] = hypoxia, read-out: IC50 ± SD, MCF-7 (Breast), Hypoxia
[9] = normoxia, read-out: IC50 ± SD, MCF-7 (Breast), Normoxia
[10] = hypoxia, read-out: IC50 ± SD, ES-2 (Ovarian), Hypoxia
[11] = normoxia, read-out: IC50 ± SD, ES-2 (Ovarian), Normoxia
[12] = normoxia, read-out: IC50 ± SD, A549 (Lung), Normoxia

| Half-time, t1/2 of reaction with GSH ([5]; listed as cis-complex C1) | reaction with GSH, times faster than cisplatin ([5]; from half-times of Table 5) | Compound | solubility in acetone [1] | solubility in chloroform [1] | IC50 [2, 8] | IC50 [2, 9] | IC50 [3, 10] | IC50 [3, 11] | IC50 [4] | Half-time, t1/2 of reaction with GSH [5] | reaction with GSH, times faster than transplatin ([5]; from half-times of Table 5) | IC50 ± SD, A549 (Lung), Hypoxia ([6]; hypoxia) | IC50 [6, 12] | Rf, Eluent: Chlorofom:Acetone Ratio 9:7 Vol. [7] | selectivity index (SI), healthy cells vs MCF-7 ([2]; ratio of cytotoxicity towards healthy BALB/3T3 cells to cytotoxicity towards MCF-7, normoxia) | reaction with GSH, times faster than oxaliplatin ([5]; from half-times of Table 5) | IC50 ([6]; hypoxia, read-out: IC50 ± SD, A549 (Lung), Hypoxia) | selectivity index (SI), healthy cells vs A549 ([6]; ratio of cytotoxicity towards healthy BALB/3T3 cells to cytotoxicity towards A549) | Half-time, t1/2 of reaction with GSH ([5]; listed as trans-complex C3) |
| --- | --- | --- | --- | --- | --- | --- | --- | --- | --- | --- | --- | --- | --- | --- | --- | --- | --- | --- | --- |
|  |  | COC(=O)c1snc(C)c1[N+](=O)[O-].COC(=O)c1snc(C)c1[N+](=O)[O-].[Cl][Pt][Cl] [C4, trans-Dichlorobis(3-methyl-4-nitro-5-(methoxycarbonyl)isothiazole)platinum(II)] | slightly soluble | very poorly soluble | 7.68 ± 4.45 µM | 6.94 ± 2.25 µM | 5.44 ± 1.64 µM | 3.89 ± 1.62 µM | 5.99 ± 1.28 µM | ~0.167 min | 24 times | inactive | 40.3 ± 19.9 µM | 0.849 |  |  |  |  |  |
|  |  | Cc1nscc1[N+](=O)[O-].Cc1nscc1[N+](=O)[O-].[Cl][Pt][Cl] [C2, trans-Dichlorobis(3-methyl-4-nitroisothiazole)platinum(II)] | weakly soluble |  | 9.07 ± 5.07 µM | 6.16 ± 0.78 µM | 1.1 ± 0.34 µM | 2.14 ± 2.21 µM | 1.14 ± 0.28 µM | ~29 min |  |  | 6.34 ± 1.47 µM | 0.756 | ≈ 0.2 | about 1.5 times | 6.52 ± 2.28 µM | 0.2 |  |
|  |  | COC(=O)c1snc(C)c1[N+](=O)[O-].Cc1nscc1[N+](=O)[O-].[Cl][Pt][Cl] [C3, trans-Dichloro-3-methyl-4-nitroisothiazole 3-Methyl-4-nitro-5-(methoxycarbonyl)isothiazole Platinum(II)] | slightly soluble | very poorly soluble | 7.13 ± 1.93 µM | 5.25 ± 1.01 µM | 4.02 ± 2.47 µM | 3.9 ± 2.68 µM | 2.94 ± 3.06 µM | about 20 s | 12 times | inactive | 5.74 ± 0.65 µM | 0.814 |  |  |  |  | 0.333 min |
| 16 min | approximately three | Dichlorobis(3-methyl-4-nitroisothiazole)platinum(II) [C1] |  |  | 8.45 ± 2.25 µM | 4.59 ± 1.57 µM | 6.37 ± 1.69 µM | 7.29 ± 1.42 µM | 7.31 ± 0.82 µM | about 16 min |  | inactive | 31.4 ± 18.8 µM | 0.442 |  |  |  |  |  |
